Data from the kinase profiling compilation of Christmann-Franck et al. (2016).

Legend:
Assay in all cases: radiometric filter-binding kinase assay, Kinase HotSpot
Conditions in all cases: compound 0.5 µM; ATP 10 µM
ACVR1B (human) = ACVR1B (human) (UniProt P36896)
ALK (human) = ALK (human) (UniProt Q9UM73)
AXL (human) = AXL (human) (UniProt P30530)
CAMK2B (human) = CAMK2B (human) (UniProt Q13554)
CDK1 CCNA2 (human) = CDK1 CCNA2 (human) (UniProt P06493+P20248)
CDK2 CCNE1 (human) = CDK2 CCNE1 (human) (UniProt P24941+P24864)
CDK6 CCND1 (human) = CDK6 CCND1 (human) (UniProt Q00534+P24385)
CDK9 CCNK (human) = CDK9 CCNK (human) (UniProt O75909+P50750)
CHEK2 (human) = CHEK2 (human) (UniProt O96017)
CHUK (human) = CHUK (human) (UniProt O15111)
CSNK1E (human) = CSNK1E (human) (UniProt P49674)
Chain of CSNK1E (human) (P49674 whole entry, looked up): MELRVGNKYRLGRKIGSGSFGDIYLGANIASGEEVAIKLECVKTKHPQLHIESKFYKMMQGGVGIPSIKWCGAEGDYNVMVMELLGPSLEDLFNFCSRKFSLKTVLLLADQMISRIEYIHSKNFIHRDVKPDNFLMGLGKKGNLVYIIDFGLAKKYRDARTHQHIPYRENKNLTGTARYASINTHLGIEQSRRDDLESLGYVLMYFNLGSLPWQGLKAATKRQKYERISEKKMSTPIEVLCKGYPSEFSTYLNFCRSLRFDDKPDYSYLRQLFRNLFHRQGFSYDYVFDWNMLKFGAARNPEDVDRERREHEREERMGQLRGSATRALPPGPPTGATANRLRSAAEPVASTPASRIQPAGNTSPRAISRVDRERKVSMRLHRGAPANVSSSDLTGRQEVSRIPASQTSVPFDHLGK

DAPK1 (human) = DAPK1 (human) (UniProt P53355)
EPHA7 (human) = EPHA7 (human) (UniProt Q15375)
ERBB2 (human) = ERBB2 (human) (UniProt P04626)
Chain of ERBB2 (human) (P04626 whole entry, looked up): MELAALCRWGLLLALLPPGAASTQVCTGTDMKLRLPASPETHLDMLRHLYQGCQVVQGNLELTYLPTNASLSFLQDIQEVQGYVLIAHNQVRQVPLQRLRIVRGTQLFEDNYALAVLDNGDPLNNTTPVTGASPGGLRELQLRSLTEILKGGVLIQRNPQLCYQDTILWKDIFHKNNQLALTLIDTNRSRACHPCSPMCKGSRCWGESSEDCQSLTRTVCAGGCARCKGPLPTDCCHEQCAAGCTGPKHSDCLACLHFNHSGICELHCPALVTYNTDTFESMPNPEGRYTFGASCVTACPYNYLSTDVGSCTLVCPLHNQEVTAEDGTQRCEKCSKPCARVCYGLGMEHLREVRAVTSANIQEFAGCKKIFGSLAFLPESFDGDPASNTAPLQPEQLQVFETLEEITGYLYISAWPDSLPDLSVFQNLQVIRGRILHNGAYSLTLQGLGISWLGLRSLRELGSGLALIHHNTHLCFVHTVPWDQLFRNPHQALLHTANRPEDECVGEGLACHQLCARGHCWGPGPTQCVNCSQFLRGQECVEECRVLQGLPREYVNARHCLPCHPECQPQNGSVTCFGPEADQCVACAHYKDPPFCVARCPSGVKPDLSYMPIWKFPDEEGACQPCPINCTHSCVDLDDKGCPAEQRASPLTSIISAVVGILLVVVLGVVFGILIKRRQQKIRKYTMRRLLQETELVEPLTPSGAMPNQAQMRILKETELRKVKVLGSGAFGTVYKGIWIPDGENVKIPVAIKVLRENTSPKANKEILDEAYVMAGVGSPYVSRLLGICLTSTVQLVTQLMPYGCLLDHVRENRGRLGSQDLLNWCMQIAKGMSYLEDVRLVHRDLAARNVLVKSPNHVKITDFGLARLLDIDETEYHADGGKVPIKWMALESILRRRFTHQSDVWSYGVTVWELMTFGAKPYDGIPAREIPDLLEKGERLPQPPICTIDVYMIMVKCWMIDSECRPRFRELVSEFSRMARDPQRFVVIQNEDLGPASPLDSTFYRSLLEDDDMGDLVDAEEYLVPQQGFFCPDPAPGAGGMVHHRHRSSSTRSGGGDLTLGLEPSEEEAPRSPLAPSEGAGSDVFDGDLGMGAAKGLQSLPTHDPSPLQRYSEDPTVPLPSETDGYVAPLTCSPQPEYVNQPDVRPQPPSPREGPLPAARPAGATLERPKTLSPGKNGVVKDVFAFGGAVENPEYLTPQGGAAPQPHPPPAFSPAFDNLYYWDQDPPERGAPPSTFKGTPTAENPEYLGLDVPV

FER (human) = FER (human) (UniProt P16591)
FLT3 (human) = FLT3 (human) (UniProt P36888)
FRK (human) = FRK (human) (UniProt P42685)
FYN (human) = FYN (human) (UniProt P06241)
Chain of FYN (human) (P06241 whole entry, looked up): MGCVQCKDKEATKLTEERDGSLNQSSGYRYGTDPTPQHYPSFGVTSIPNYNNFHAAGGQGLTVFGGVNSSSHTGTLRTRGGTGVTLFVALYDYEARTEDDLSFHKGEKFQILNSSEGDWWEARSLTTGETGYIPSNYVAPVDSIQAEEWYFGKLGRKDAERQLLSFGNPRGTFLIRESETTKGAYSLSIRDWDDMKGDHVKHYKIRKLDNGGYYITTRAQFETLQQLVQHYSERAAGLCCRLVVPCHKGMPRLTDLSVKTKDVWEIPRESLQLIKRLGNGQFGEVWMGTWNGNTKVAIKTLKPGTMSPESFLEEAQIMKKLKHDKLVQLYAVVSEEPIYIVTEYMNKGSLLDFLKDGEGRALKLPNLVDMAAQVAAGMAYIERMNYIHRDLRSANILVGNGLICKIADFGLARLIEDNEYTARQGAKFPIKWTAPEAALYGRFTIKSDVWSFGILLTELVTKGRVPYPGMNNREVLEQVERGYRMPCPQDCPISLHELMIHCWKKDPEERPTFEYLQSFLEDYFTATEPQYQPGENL

GRK4 (human) = GRK4 (human) (UniProt P32298)
GRK5 (human) = GRK5 (human) (UniProt P34947)
Chain of GRK5 (human) (P34947 whole entry, looked up): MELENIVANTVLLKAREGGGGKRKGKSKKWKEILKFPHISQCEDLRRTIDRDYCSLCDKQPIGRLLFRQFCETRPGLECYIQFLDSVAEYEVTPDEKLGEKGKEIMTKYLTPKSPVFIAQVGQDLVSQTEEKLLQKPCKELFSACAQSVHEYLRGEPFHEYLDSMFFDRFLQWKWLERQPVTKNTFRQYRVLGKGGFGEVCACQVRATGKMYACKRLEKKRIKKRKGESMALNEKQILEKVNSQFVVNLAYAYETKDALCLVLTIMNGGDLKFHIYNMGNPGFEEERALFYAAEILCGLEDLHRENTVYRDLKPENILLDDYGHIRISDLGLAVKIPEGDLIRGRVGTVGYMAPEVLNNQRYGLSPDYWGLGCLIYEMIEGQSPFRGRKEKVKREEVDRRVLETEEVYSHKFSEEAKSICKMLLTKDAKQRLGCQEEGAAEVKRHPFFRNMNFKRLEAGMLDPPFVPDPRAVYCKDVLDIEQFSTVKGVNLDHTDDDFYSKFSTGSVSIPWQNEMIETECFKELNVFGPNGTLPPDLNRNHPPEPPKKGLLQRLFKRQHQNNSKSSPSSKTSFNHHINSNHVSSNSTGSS

GRK6 (human) = GRK6 (human) (UniProt P43250)
GSG2 (human) = GSG2 (human) (UniProt Q8TF76)
LCK (human) = LCK (human) (UniProt P06239)
MAPK1 (human) = MAPK1 (human) (UniProt P28482)
MAPK10 (human) = MAPK10 (human) (UniProt P53779)
Chain of MAPK10 (human) (P53779 whole entry, looked up): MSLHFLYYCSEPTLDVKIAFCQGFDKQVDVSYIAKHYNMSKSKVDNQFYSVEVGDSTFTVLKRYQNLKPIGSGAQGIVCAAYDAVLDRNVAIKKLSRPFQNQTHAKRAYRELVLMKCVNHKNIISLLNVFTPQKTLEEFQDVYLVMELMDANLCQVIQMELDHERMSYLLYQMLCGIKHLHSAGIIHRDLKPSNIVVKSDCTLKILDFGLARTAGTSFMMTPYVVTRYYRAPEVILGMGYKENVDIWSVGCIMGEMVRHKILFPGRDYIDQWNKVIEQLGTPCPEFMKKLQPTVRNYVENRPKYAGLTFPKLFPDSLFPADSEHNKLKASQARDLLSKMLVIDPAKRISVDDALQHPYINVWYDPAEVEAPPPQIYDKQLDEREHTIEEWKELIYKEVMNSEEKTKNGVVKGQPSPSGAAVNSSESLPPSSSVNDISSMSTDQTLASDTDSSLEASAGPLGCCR

MAPK11 (human) = MAPK11 (human) (UniProt Q15759)
MAPK12 (human) = MAPK12 (human) (UniProt P53778)
MAPK14 (human) = MAPK14 (human) (UniProt Q16539)
Chain of MAPK14 (human) (Q16539 whole entry, looked up): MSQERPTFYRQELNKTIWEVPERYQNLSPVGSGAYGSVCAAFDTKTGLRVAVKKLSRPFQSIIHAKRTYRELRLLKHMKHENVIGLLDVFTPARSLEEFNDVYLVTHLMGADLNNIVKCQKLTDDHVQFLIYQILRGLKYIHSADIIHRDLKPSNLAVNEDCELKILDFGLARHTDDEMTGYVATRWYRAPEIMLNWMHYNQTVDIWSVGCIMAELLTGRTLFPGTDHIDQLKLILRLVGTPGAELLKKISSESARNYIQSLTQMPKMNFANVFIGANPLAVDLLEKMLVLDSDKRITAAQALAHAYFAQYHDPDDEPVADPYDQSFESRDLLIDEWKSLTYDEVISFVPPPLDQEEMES

MAPKAPK5 (human) = MAPKAPK5 (human) (UniProt Q8IW41)
PAK3 (human) = PAK3 (human) (UniProt O75914)
PDPK1 (human) = PDPK1 (human) (UniProt O15530)
PRKCB1 (human) = PRKCB1 (human) (UniProt P05771)
PRKD3 (human) = PRKD3 (human) (UniProt O94806)
Chain of PRKD3 (human) (O94806 whole entry, looked up): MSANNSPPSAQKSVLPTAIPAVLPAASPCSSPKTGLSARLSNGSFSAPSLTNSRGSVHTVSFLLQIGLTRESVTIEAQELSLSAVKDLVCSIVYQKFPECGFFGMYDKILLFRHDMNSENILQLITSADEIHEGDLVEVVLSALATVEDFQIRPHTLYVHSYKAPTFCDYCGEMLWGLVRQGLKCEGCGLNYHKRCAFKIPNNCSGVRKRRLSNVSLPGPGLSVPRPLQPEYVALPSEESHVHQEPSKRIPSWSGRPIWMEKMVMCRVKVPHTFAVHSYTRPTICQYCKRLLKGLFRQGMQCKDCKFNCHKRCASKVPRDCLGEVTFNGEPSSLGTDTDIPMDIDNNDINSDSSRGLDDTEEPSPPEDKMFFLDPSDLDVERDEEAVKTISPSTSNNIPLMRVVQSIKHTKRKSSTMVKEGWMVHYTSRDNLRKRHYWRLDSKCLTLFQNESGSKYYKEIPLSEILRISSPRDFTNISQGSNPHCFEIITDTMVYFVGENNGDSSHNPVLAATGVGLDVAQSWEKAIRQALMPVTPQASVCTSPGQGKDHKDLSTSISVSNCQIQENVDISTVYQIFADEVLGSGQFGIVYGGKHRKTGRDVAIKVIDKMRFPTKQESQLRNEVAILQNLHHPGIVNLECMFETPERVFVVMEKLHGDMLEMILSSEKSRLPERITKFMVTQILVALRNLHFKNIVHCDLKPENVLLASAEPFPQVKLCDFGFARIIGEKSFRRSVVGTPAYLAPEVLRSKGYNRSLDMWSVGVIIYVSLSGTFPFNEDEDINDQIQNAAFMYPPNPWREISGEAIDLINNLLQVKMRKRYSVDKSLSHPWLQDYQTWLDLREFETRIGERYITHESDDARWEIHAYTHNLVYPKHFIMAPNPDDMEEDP

PRKG2 (human) = PRKG2 (human) (UniProt Q13237)
PRKX (human) = PRKX (human) (UniProt P51817)
Chain of PRKX (human) (P51817 whole entry, looked up): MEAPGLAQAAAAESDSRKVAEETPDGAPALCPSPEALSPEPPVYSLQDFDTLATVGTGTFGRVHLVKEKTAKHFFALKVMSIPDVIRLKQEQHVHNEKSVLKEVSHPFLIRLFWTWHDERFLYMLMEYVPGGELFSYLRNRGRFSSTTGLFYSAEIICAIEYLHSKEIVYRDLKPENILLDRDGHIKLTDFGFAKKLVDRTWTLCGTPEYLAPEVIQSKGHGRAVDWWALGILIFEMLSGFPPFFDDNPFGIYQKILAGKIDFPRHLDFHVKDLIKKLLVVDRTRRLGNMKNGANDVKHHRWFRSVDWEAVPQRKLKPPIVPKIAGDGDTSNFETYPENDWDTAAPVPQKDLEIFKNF

ROCK2 (human) = ROCK2 (human) (UniProt O75116)
ROS1 (human) = ROS1 (human) (UniProt P08922)
RPS6KA5 KD2 (human) = RPS6KA5 KD2 (human) (UniProt O75582)
RPS6KA6 KD1 KD2 (human) = RPS6KA6 KD1 KD2 (human) (UniProt Q9UK32)
SRPK3 (human) = SRPK3 (human) (UniProt Q9UPE1)
STK24 (human) = STK24 (human) (UniProt Q9Y6E0)
TTK (human) = TTK (human) (UniProt P33981)

## COc1cc2ncc(-c3ccccc3)nc2cc1OC
ACVR1B (human)
  residual activity: 95.2%
ALK (human)
  residual activity: 94.1%
AXL (human)
  residual activity: 95.2%
CAMK2B (human)
  residual activity: 93.3%
CDK1 CCNA2 (human)
  residual activity: 94.8%
CDK2 CCNE1 (human)
  residual activity: 85.4%
CDK6 CCND1 (human)
  residual activity: 94.1%
CDK9 CCNK (human)
  residual activity: 102%
CHEK2 (human)
  residual activity: 94.2%
CHUK (human)
  residual activity: 113%
CSNK1E (human)
  residual activity: 79.3%
DAPK1 (human)
  residual activity: 99.7%
EPHA7 (human)
  residual activity: 94.7%
ERBB2 (human)
  residual activity: 116%
FER (human)
  residual activity: 80%
FLT3 (human)
  residual activity: 65.9%
FRK (human)
  residual activity: 99.3%
FYN (human)
  residual activity: 100%
GRK4 (human)
  residual activity: 97.8%
GRK5 (human)
  residual activity: 106%
GRK6 (human)
  residual activity: 92.8%
GSG2 (human)
  residual activity: 92.1%
LCK (human)
  residual activity: 93.5%
MAPK1 (human)
  residual activity: 95.6%
MAPK10 (human)
  residual activity: 90.3%
MAPK11 (human)
  residual activity: 95.7%
MAPK12 (human)
  residual activity: 95.5%
MAPK14 (human)
  residual activity: 122%
MAPKAPK5 (human)
  residual activity: 88.1%
PAK3 (human)
  residual activity: 94.7%
PDPK1 (human)
  residual activity: 92.6%
PRKCB1 (human)
  residual activity: 105%
PRKD3 (human)
  residual activity: 91.1%
PRKG2 (human)
  residual activity: 83.6%
PRKX (human)
  residual activity: 97.4%
ROCK2 (human)
  residual activity: 96.1%
ROS1 (human)
  residual activity: 100%
RPS6KA5 KD2 (human)
  residual activity: 91.8%
RPS6KA6 KD1 KD2 (human)
  residual activity: 98.5%
SRPK3 (human)
  residual activity: 91.1%
STK24 (human)
  residual activity: 104%
TTK (human)
  residual activity: 125%

## O=C1NC(=O)C(c2c[nH]c3ccccc23)=C1c1c[nH]c2ccccc12
ACVR1B (human)
  residual activity: 112%
ALK (human)
  residual activity: 95.7%
AXL (human)
  residual activity: 103%
CAMK2B (human)
  residual activity: 96.9%
CDK1 CCNA2 (human)
  residual activity: 96.3%
CDK2 CCNE1 (human)
  residual activity: 71.4%
CDK6 CCND1 (human)
  residual activity: 88.7%
CDK9 CCNK (human)
  residual activity: 80%
CHEK2 (human)
  residual activity: 124%
CHUK (human)
  residual activity: 93.4%
CSNK1E (human)
  residual activity: 92.4%
DAPK1 (human)
  residual activity: 79.4%
EPHA7 (human)
  residual activity: 94.3%
ERBB2 (human)
  residual activity: 94.3%
FER (human)
  residual activity: 83.5%
FLT3 (human)
  residual activity: 16.1%
FRK (human)
  residual activity: 88.2%
FYN (human)
  residual activity: 101%
GRK4 (human)
  residual activity: 97.1%
GRK5 (human)
  residual activity: 98.1%
GRK6 (human)
  residual activity: 101%
GSG2 (human)
  residual activity: 84.7%
LCK (human)
  residual activity: 85.1%
MAPK1 (human)
  residual activity: 90.5%
MAPK10 (human)
  residual activity: 110%
MAPK11 (human)
  residual activity: 89%
MAPK12 (human)
  residual activity: 93%
MAPK14 (human)
  residual activity: 109%
MAPKAPK5 (human)
  residual activity: 119%
PAK3 (human)
  residual activity: 97.4%
PDPK1 (human)
  residual activity: 96.7%
PRKCB1 (human)
  residual activity: 26.1%
PRKD3 (human)
  residual activity: 88.4%
PRKG2 (human)
  residual activity: 52.6%
PRKX (human)
  residual activity: 99.5%
ROCK2 (human)
  residual activity: 89.2%
ROS1 (human)
  residual activity: 87%
RPS6KA5 KD2 (human)
  residual activity: 62%
RPS6KA6 KD1 KD2 (human)
  residual activity: 19.2%
SRPK3 (human)
  residual activity: 90%
STK24 (human)
  residual activity: 61.5%
TTK (human)
  residual activity: 106%

## Nc1nnc2[nH]c3ccccc3nc1-2
ACVR1B (human)
  residual activity: 99.9%
ALK (human)
  residual activity: 96.7%
AXL (human)
  residual activity: 91.3%
CAMK2B (human)
  residual activity: 90%
CDK1 CCNA2 (human)
  residual activity: 95.3%
CDK2 CCNE1 (human)
  residual activity: 85.5%
CDK6 CCND1 (human)
  residual activity: 105%
CDK9 CCNK (human)
  residual activity: 88.3%
CHEK2 (human)
  residual activity: 94.4%
CHUK (human)
  residual activity: 85.9%
CSNK1E (human)
  residual activity: 90.2%
DAPK1 (human)
  residual activity: 91.5%
EPHA7 (human)
  residual activity: 95.3%
ERBB2 (human)
  residual activity: 95.2%
FER (human)
  residual activity: 94.4%
FLT3 (human)
  residual activity: 75.9%
FRK (human)
  residual activity: 96.8%
FYN (human)
  residual activity: 96.1%
GRK4 (human)
  residual activity: 98.9%
GRK5 (human)
  residual activity: 101%
GRK6 (human)
  residual activity: 104%
GSG2 (human)
  residual activity: 82.1%
LCK (human)
  residual activity: 93.6%
MAPK1 (human)
  residual activity: 100%
MAPK10 (human)
  residual activity: 92.1%
MAPK11 (human)
  residual activity: 93.8%
MAPK12 (human)
  residual activity: 100%
MAPK14 (human)
  residual activity: 96.6%
MAPKAPK5 (human)
  residual activity: 82.7%
PAK3 (human)
  residual activity: 98.3%
PDPK1 (human)
  residual activity: 96.8%
PRKCB1 (human)
  residual activity: 103%
PRKD3 (human)
  residual activity: 87.3%
PRKG2 (human)
  residual activity: 66.7%
PRKX (human)
  residual activity: 102%
ROCK2 (human)
  residual activity: 93.3%
ROS1 (human)
  residual activity: 106%
RPS6KA5 KD2 (human)
  residual activity: 92.4%
RPS6KA6 KD1 KD2 (human)
  residual activity: 94.2%
SRPK3 (human)
  residual activity: 95.6%
STK24 (human)
  residual activity: 89.1%
TTK (human)
  residual activity: 102%
